The results in this text go back to patent US20210260015A1, “COMPOSITION FOR INHIBITING FAT ACCUMULATION” (National University Corporation Tokyo University of …, priority 2018, published 2021).

Common to all, as to format: in vivo, C57BL/6J male mice
The nature of test [1]: Body weight changes of mice fed test diets for 5 weeks. To be noted: conclusion from diet groups, C8 vs C10 and C12. Here is the method:
(§1) Seven (7)-week-old C57BL/6J male mice (Japan SLC, Inc.) were acclimated with CLEA Rodent Diet CE-2 (manufactured by CLEA Japan, Inc.) for 1 week, and divided into 5 groups (n=9 or 10). Any of feeds having the compositions indicated in Tables 1 and 2, i.e., four types of test diets and a normal diet, was given to the respective groups for 5 weeks. Specifically, as the test diets, MCT diets were prepared by blending MCTs and LCT in a low-carbohydrate high-fat diet feed made based on an AIN-93G standard composition feed, and an LCT diet was prepared by blending LCT (manufactured by Wako Pure Chemical Industries) alone, without MCT, in a low-carbohydrate high-fat diet feed made based on an AIN-93G standard composition feed. […]
(§2) The ingestion amounts of the test diets and the body weight changes during the test period (5 weeks) were measured, and the weights of the various organs including adipose tissues and the plasma levels of ketone bodies were measured at the end of the test period. […] In addition, plasma was collected from the collected blood, and ketone bodies were quantified according to an enzymatic method.

Test [2] can be described thus: Plasma levels of ketone bodies 5 weeks after the beginning of ingestion (enzymatic method). The following applies: conclusion from diet groups. Here is the method:
as §1, §2

Test [3] can be described thus: Weights of adipose tissues 5 weeks after the beginning of ingestion. The following applies: conclusion from diet groups, C8 vs C10 or C12. Here is the method: as §1, §2

Regarding `CCCCCCCC(=O)OCC(COC(=O)CCCCCCC)OC(=O)CCCCCCC` [caprylic acid triglyceride (C8), caprylic acid triglyceride], the “effect for suppressing body weight gain depending on the number of carbon atoms of the constituent fatty acid of MCT” value in test [1] is “has a higher effect for suppressing body weight gain than those of capric acid triglyceride (C10) and lauric acid triglyceride (C12)”. Also, the “ketone body production, C8 vs C10 or C12 triglyceride” value in test [2] is recorded as “produces ketone bodies more than those produced by capric acid triglyceride (C10) or lauric acid triglyceride (C12)”. Moreover, the “effect for suppressing neutral fat accumulation depending on the number of carbon atoms of the constituent fatty acid of MCT” value in test [3] is “has a higher effect for suppressing neutral fat accumulation than that of capric acid triglyceride (C10) or lauric acid triglyceride (C12)”.
